Reference: PubChem BioAssay (NCI)
Where “and” joins values, the source holds several entries; their conditions need not be identical. Equal entries are not always repeated.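 Grown in 96-well plates, cells were treated for 48 hours with each compound at five concentrations. Insufficient inhibition: endpoint recorded as highest concentration tested. The concentration for 50% growth inhibition is given as GI50. TGI marks complete inhibition of growth.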

Tests used:
Experiment in all cases: NCI tumour cell line growth inhibition, 48 h
NCI-H522 lung = system: NCI-H522 lung
NCI-H226 lung = system: NCI-H226 lung
OVCAR-8 ovarian = system: OVCAR-8 ovarian
HCT-15 colon = system: HCT-15 colon
DLD-1 colon = system: DLD-1 colon
M19-MEL melanoma = system: M19-MEL melanoma
CCRF-CEM leukemia = system: CCRF-CEM leukemia
NCI-H23 lung = system: NCI-H23 lung
MALME-3M melanoma = system: MALME-3M melanoma
HS 578T breast = system: HS 578T breast

SMILES	TGI (NCI-H522 lung) [µM]	GI50 (NCI-H226 lung) [µM]	TGI (NCI-H226 lung)	TGI (OVCAR-8 ovarian) [µM]	TGI (HCT-15 colon) [µM]	TGI (DLD-1 colon) [µM]	TGI (M19-MEL melanoma) [µM]	TGI (CCRF-CEM leukemia)	TGI (NCI-H23 lung) [µM]	TGI (MALME-3M melanoma) [µM]	TGI (HS 578T breast) [µM]	GI50 (OVCAR-8 ovarian) [µM]	GI50 (CCRF-CEM leukemia) [µM]	GI50 (NCI-H23 lung) [µM]
CC1(C)OC2OC(COC(=O)C(c3ccccc3)c3ccccc3)C3OC(C)(C)OC3C2O1 (stereo unspecified)	> 100	> 100	> 100 µM	> 100	> 100	> 100	> 100	> 100 µM	> 100	> 100	–	–	–	–
COc1cc2c(cc1OC)C(SC)C(=O)N(Cc1cccc(OC)c1OC)CC2 (stereo unspecified)	3.07	–	26.8 µM	70.9	> 74	> 100	22.3	> 55.6 µM	18.2	> 66.6	> 24.6	–	–	–
O=c1c2cccc3cccc(c4n1CCCN=4)c32	> 100	–	> 100 µM	> 100	> 100	> 100	> 100	> 100 µM	> 100	> 100	–	–	–	–
CN(C)CCNC(=O)c1cccc2cc3ccc4ccccc4c3nc12	0.28	–	0.488 µM	0.316	0.593	0.817	0.235	0.267 µM	0.39	0.76	–	–	–	–
C1CCN2CC3CONC3C2C1 (stereo unspecified)	> 100	–	> 100 µM	> 100	> 100	> 100	> 100	> 100 µM	> 100	> 100	–	–	–	–
CC1CCC2c3c([nH]c4ccccc34)C3C(=O)N(c4ccccc4)C(=O)C3C2C1 (stereo unspecified)	> 250	62.3	96.4 µM and 161 µM	> 250	> 250	> 250	> 250	42 µM and > 250 µM	> 250	215	–	> 250	194	30.3
CC1=C(C(=O)CC(=O)C(=O)Nc2ccccc2C)Sc2ccccc2N1	> 100	–	> 100 µM	> 100	> 100	> 67.9	> 100	> 100 µM	> 100	> 100	–	–	–	–
O=C(Nc1ccc(Cl)c(Cl)c1)C1C(=O)N(c2ccc(Cl)c(Cl)c2)C(=O)/C1=N\O (stereo unspecified)	> 100	–	> 100 µM	> 100	> 100	> 100	> 100	> 100 µM	> 100	> 100	–	–	–	–
O=C1c2ccoc2C(=O)c2oc(=O)ccc21	4.18	–	> 56.7 µM	14.9	24.9	36.4	2.9	15.7 µM	4.01	7.84	–	–	–	–
O=c1[nH]c(=O)n(C2CC(O)C(O)C(CO)O2)cc1F (stereo unspecified)	> 100	–	> 100 µM	> 100	> 100	> 100	> 100	> 100 µM	> 100	> 100	–	–	–	–
